Reference: patent US9827217B2, “Pharmaceutically acceptable salts of B-guanidinopropionic acid with improved properties and uses thereof” (Rgenix, Inc., priority 2015, dated 2017)
“Also recorded” adds a separate entry of the source. One block for each compound: values may come before it.

Key:
Format in all cases: physicochemical
[1] = Experiments performed on 2:1 fumarate salt (Pattern 7C)
Experimental: To confirm the above hypothesis the following experiments (Table 24) were performed on the lyophilized sample (Pattern 7C): […]

[2] = Dynamic vapor sorption (moisture uptake)
Experimental: Samples were analyzed using an Aquadyne DVS-2 gravimetric water sorption analyzer. The relative humidity was adjusted between 2-95% and the weight of the sample was continuously monitored and recorded.
[…]: β-GPA maleate (1:1) Form II, β-GPA fumarate (1:1), β-GPA maleate (2:1), β-GPA succinate (2:1) and β-GPA oxalate (1:1) were analyzed by DVS experiment followed by XRPD analysis of the sample at the end of the experiment.
Sample 2162-64-1 was analyzed by DVS in triplicate and the post DVS samples were characterized by XRPD to identify the form at the end of the experiment.

[3] = Solid form stability of 1:1 β-GPA fumarate at various temperature/humidity conditions
[4] = Gravimetric solubility of β-GPA fumarate in solvents; details: fifteen solvents and solvent mixtures at 15 and 45° C.
Experimental: Solubility of β-GPA fumarate was measured gravimetrically in fifteen different solvents and solvent mixtures at 15 and 45° C. About 100 mg of the compound was dispensed in ten volumes (1 mL) of the solvent/solvent mixture and slurried for 48 hours. Table 23 represents the solubility of β-GPA fumarate in different solvents. After 48 hours the vials were centrifuged. The supernatant was collected and left for slow evaporation under vacuum at 45° C. and solubility was determined. The solids obtained after centrifugation and evaporation were analyzed by XRPD.

[5] = Solid form stability of salts in different solvents (slurry); details: 48 hours, room temperature
Experimental: Three salts were studied for solid form stability in water (disproportionation test), methanol, acetonitrile, and acetone:water (9:1) for 48 hours at room temperature.

[6] = Flowability measurement using Hanson Flodex unit; details: density and Hanson Flodex data
Text: A cylindrical vessel is secured to the stand and above that a funnel is also secured such that the bottom of the funnel is close to the vessel. A powder load of ≈50-60 g is then poured through the funnel into the middle of the cylinder. The lever device is pulled to open the hole in the disk quickly and without vibration. If a powder slowly flows through the small-diameter holes, leaving a cavity shaped like an upside-down, truncated cone, the test is considered positive. If a powder flocculates in bulk and falls abruptly, forming a cylindrical cavity, the test is considered negative. […] If the experiment is negative, the powder is tested again with a disk having a larger hole.

[7] = Determination of bulk and tapped density; details: for Tapped density (ρT): Tap density analyzer
Experimental: The bulk density of β-GPA oxalate (Pattern 18 B), succinate (Pattern 15A), and fumarate (Pattern 7A) were determined by pouring in a known amount of salt (g) into a measuring cylinder. The volume (Vi) occupied by the salt was recorded and the bulk density (ρB) was determined using equation 1. ρB=g/Vi (1)
The tapped densities of the salts were determined using a Tap density analyzer. A known amount of salt was poured (g) into a measuring cylinder and the initial volume was recorded and tapped using a Tap density analyzer. The final volume (Vf) after tapping was recorded and the tapped density (ρT) was calculated by using equation 2. ρT=g/Vf (2)

[8] = Temperature cycling of 1:1 β-GPA fumarate
Experimental: The following (Table 25) experiments were performed to isolate possible polymorphic forms of 1:1 β-GPA fumarate.

[9] = Solid form stability of 1:1 β-GPA fumarate at various temperature/humidity conditions; details: for XRPD after stability study: a week
Experimental: The solid form stability of β-GPA fumarate was studied at various temperature/humidity conditions as listed in Table 22 for a week using saturated salt solution chambers. The samples were analyzed by XRPD after a week.

[10] = Solubility of β-GPA in water
[11] = Stability of free β-GPA at 40° C. at 75% humidity; details: 40° C. at 75% humidity after 4 weeks
[12] = Determination of Carr's index and Hausner ratio; details: scale of Table 5
Text: The flow properties of β-GPA are sub-optimal. The bulk density is 0.389 g/cc and the tapped density is 0.627 g/cc. These measurements can be used to calculate the Carr's index and Hausner ratio for a substance. The Carr's index and Hausner ratio are indicators of flowability of a powder. As known in the art, e.g., as described in Carr R. L. Chem. Eng. 1965, 72, 163-168, the relationship to flowability of a powder to the Carr's index and Hausner ratio is based on the scale shown in Table 5 below.
Carr's index or Carr's compressibility index (C) is an indication of the compressibility of a powder. It can be calculated using the equation below: Carr's index(C)=100(Vi−Vf)/Vi (3)
The Hausner ratio is a number that is correlated to the flowability of a powder or granular material. It is calculated by using the equation below: Hausner ratio=Vi/Vf (4)

[13] = 50 mg slurried in 0.2 mL of water

Compound: N=C(N)NCCC(=O)O.N=C(N)NCCC(=O)O.O=C(O)/C=C/C(=O)O [2:1 fumarate salt]
Stability of the crystalline form of the 2:1 salt [1]: unstable | Result: XRPD pattern that Pattern 7C converted to [1, 13]: Pattern 7A | Time to conversion of Pattern 7C to Pattern 7A [1, 13]: (within 10 minutes | Result: XRPD pattern that Pattern 7C converted to ([1]; heated at 50° C. 5-10 minutes): Pattern 7A | Result: XRPD pattern that Pattern 7C converted to ([1]; humidity chamber with RH >95% for 48 hours): Pattern 7A | Result: XRPD pattern that Pattern 7C converted to ([1]; mixed with Pattern 7A, undisturbed at room temperature (48 hours)): Pattern 7A | Form conversion of the 2:1 salt ([1]; slurried in water, heated, or under high humidity conditions): converted to the 1:1 salt

Compound: N=C(N)NCCC(=O)O.O=C(O)/C=C/C(=O)O [β-GPA fumarate (1:1)]
Solid form after the DVS experiment (XRPD) ([2]; XRPD of post DVS sample): presence of two peaks from the β-GPA | Solid form after the DVS experiment (XRPD) ([2]; XRPD of post DVS sample, listed as 1:1 fumarate): presence of β-GPA peaks along with Pattern 7A | Solid form after the DVS experiment (XRPD) ([2]; XRPD of post DVS sample, listed as 1:1 fumarate salt): no form change | Moisture uptake during DVS ([2]; scaled-up sample 2162-64-1, DVS in triplicate): less than 0.1% | Solid form after the DVS experiment (XRPD) ([2]; scaled-up sample 2162-64-1, three DVS experiments): identical to β-GPA fumarate (Pattern 7A); also recorded: did not exhibit any dissociation of the salt | XRPD after stability study ([3]; 60 ° C., 50% relative humidity, a week): Pattern 7A | Solid form stability at high humidity (XRPD) ([3]; sample 2162-64-1, RH>95% at room temperature (20° C.), 48 hours): retain its original XRPD pattern (Pattern 7A); also recorded: stable | Solid form of precipitates after 48 hours slurries (XRPD) [4]: no form transformations | Solid form stability (XRPD) after slurry in acetone:water (9:1) [5]: retain their XRPD pattern | Solid form stability (XRPD) after slurry in acetonitrile [5]: retain their XRPD pattern | Solid form stability (XRPD) after slurry in methanol [5]: retain their XRPD pattern | Solid form stability (XRPD) after slurry in water (disproportionation test) [5]: retained their XRPD patterns | Solid form stability (XRPD) after slurry in water (disproportionation test) ([5]; listed as 1:1 β-GPA fumarate): retained their XRPD pattern | Flow character (summary from the experimental data) [6]: excellent | Bulk density (ρB) [7]: 0.576 g/cc | Tapped density (ρT) [7]: 0.613 g/cc | Result (XRPD) after temperature cycling ([8]; 50° C. 2 hours, RT, 50° C. 48 hours): Pattern 7A | Result (XRPD) after temperature cycling ([8]; dry ice-acetone 30 minutes, RT): Pattern 7A | Result (XRPD) after temperature cycling ([8]; heated to 150° C. and brought to room temperature, three cycles): Pattern 7A | Result (XRPD) after temperature cycling ([8]; heated to 165° C., immediately dry ice/acetone cooling bath 15 min): Pattern 7D | Appearance after heating ([8]; heating at 160-165° C. (2162-84-7)): yellow to brownish solid | Result (XRPD) after temperature cycling ([8]; vacuum oven 130° C. 2 hours, RT, 130° C. 48 hours): Pattern 7A | XRPD after stability study ([9]; 20 ° C., 43% relative humidity): Pattern 7A | XRPD after stability study ([9]; 20 ° C., 59% relative humidity): Pattern 7A | XRPD after stability study ([9]; 20 ° C., 73% relative humidity): Pattern 7A | XRPD after stability study ([9]; 20 ° C., >95% relative humidity): Pattern 7A | XRPD after stability study ([9]; 40 ° C., 82% relative humidity): Pattern 7A | XRPD after stability study ([9]; 60 ° C., 80% relative humidity): Pattern 7A | XRPD after stability study (summary) ([9]; various temperature/RH conditions of Table 22, a week): retained the original XRPD pattern (Pattern 7A)

Compound: N=C(N)NCCC(=O)O.O=C(O)/C=C\C(=O)O [β-GPA maleate (1:1) Form II]
Solid form after the DVS experiment (XRPD) ([2]; XRPD of post DVS sample): no form change | Solid form stability (XRPD) after slurry in acetone:water (9:1) [5]: matched with the original pattern of the salt (Pattern 6D) along with some additional peaks | Solid form stability (XRPD) after slurry in acetonitrile [5]: retain its XRPD pattern | Solid form stability (XRPD) after slurry in methanol [5]: retain its XRPD pattern | Solid form stability (XRPD) after slurry in water (disproportionation test) [5]: retained their XRPD patterns

Now from value to compound, other results behind:

Solid form after the DVS experiment (XRPD) ([2]; XRPD of post DVS sample): retained their XRPD | Solid form after the DVS experiment (XRPD) ([2]; XRPD of post DVS sample, listed as 1:1 oxalate salt): no form change | Solid form after the DVS experiment (XRPD) ([2]; XRPD of post DVS sample, listed as 1:1 β-GPA oxalate): no form change | Solid form stability (XRPD) after slurry in acetone:water (9:1) [5]: retain their XRPD pattern | Solid form stability (XRPD) after slurry in acetonitrile [5]: retain their XRPD pattern | Solid form stability (XRPD) after slurry in methanol [5]: retain their XRPD pattern | Solid form stability (XRPD) after slurry in water (disproportionation test) [5]: retained their XRPD patterns | Solid form stability (XRPD) after slurry in water (disproportionation test) ([5]; listed as 1:1 β-GPA oxalate): retained their XRPD pattern | Flow character (summary from the experimental data) [6]: fair | Bulk density (ρB) [7]: 0.505 g/cc | Tapped density (ρT) [7]: 0.623 g/cc
Compound: N=C(N)NCCC(=O)O.O=C(O)C(=O)O [β-GPA oxalate (1:1)]

Solid form after the DVS experiment (XRPD) ([2]; XRPD of post DVS sample): retained their XRPD | Solid form after the DVS experiment (XRPD) ([2]; XRPD of post DVS sample, listed as 2:1 succinate salt): no form change | Solid form after the DVS experiment (XRPD) ([2]; XRPD of post DVS sample, listed as 2:1 β-GPA succinate): no form change | Solid form stability (XRPD) after slurry in acetone:water (9:1) [5]: presence of β-GPA | Solid form stability (XRPD) after slurry in acetonitrile [5]: retain its original form | Solid form stability (XRPD) after slurry in acetonitrile ([5]; listed as 2:1 β-GPA succinate): retain its XRPD pattern | Solid form stability (XRPD) after slurry in methanol [5]: retain its original form | Solid form stability (XRPD) after slurry in methanol ([5]; listed as 2:1 β-GPA succinate): retain its XRPD pattern | Flow character (summary from the experimental data) [6]: good | Bulk density (ρB) [7]: 0.405 g/cc | Tapped density (ρT) [7]: 0.472 g/cc
Compound: N=C(N)NCCC(=O)O.N=C(N)NCCC(=O)O.O=C(O)CCC(=O)O [β-GPA succinate (2:1)]
Solid form stability (XRPD) after slurry in water (disproportionation test) [5]: showed two peaks from β-GPA after 6 hours | Solid form stability (XRPD) after slurry in water (disproportionation test) ([5]; listed as 2:1 β-GPA succinate): started showing up peaks from β-GPA after 6 hours

Moisture uptake during the DVS experiment ([2]; DVS, relative humidity cycled up to 95%): around 0.1% | Solid form after the DVS experiment (XRPD) ([2]; XRPD of post DVS sample): No change in the solid form | solubility [10]: > 50 mg/mL | Degradation [11]: No degradation | Flow character (summary from the experimental data) [6]: poor | Bulk density (ρB) [7]: 0.389 g/cc | Tapped density (ρT) [7]: 0.627 g/cc | Flow character by Carr's index [12]: Very poor (32-37)
Compound: N=C(N)NCCC(=O)O [β-GPA, β-Guanidinopropionic acid, reference compound]
